Laboratory results as given in US20230060873A1, “COMPOUNDS AND METHODS FOR FORMING ION CHANNELS IN BIOLOGICAL MEMBRANES” (Washington University, priority 2021, published 2023).

Experiments:
[1] = Reversal potential and permeability ratio under bi-ionic conditions (voltage ramps); format: biochemical; settings: 10 μM; for permeability ratio pK/pNa: Goldman-Hodgkin-Katz equation from reversal potential; for estimated reversal potential: internal 180 mM NaCl, 20 mM KCl, external 20 mM NaCl, 180 mM KCl, n=6
Procedure: This can be determined by measuring the reversal potential under bi-ionic conditions and by applying rapid voltage ramps to measure reversal from open channels. For the determination of permeability ratios, a voltage protocol (detailed below) was applied 100 times to the membrane, while a gradient of ions was set through the membrane (internal solution: 180 mM NaCl, 20 mM KCl, 30 mM HEPES, pH adjusted to 7.4 with NaOH; external solution: 20 mM NaCl, 180 mM KCl, 30 mM HEPES, pH adjusted to 7.4 with NaOH). The protocol started from the holding potential (0 mV), followed by a jump to 100 mV during 100 ms, then a ramp of 1000 ms until −100 mV, maintenance of the voltage at −100 mV for 100 ms before returning to the initial 0 mV holding potential. Calculation of the variance at every isochrone allowed determination of the reversal potential (Vrev) as the voltage at which the variance is minimized. The permeability ratio for
was calculated from the Goldman-Hodgkin-Katz (GHK) equation by assuming that reversal potential is the equilibrium membrane voltage reached by a selective membrane in the presence of that gradient of ions. This leads to the equation 1: […]
where F is the Faraday constant, R is the gas constant, T is the absolute temperature, [K^+]i, and [K^+]e are the internal and external K^+ concentrations, respectively, and [Na^+]i, and [Na^+]e are the internal and external Na^+ concentrations, respectively.
Multiple voltage ramps (N=100) from +100 mV to −100 mV were applied in the presence of 10 μM 6-A-10 (FIG. 18) and 10 μM 6-O-10 (FIG. 20). The reversal potential for each case was determined as that voltage which produces the minimum of variance (FIGS. 19 and 21). In FIGS. 19 and 21, the curves are the variance calculated from experiments in FIGS. 18 and 20, respectively.
In these experiments, the internal concentration of Na^+ in the pipette was 9-fold higher than the external concentration, whereas the K^+ gradient was reversed (internal solution: 180 mM NaCl, 20 mM KCl, 30 mM HEPES, pH 7.4; external solution: 20 mM NaCl, 180 mM KCl, 30 mM HEPES, pH 7.4). If the channels are K^+ selective, the reversal potential will be close to the K^+ Nernst potential, which is 58 mV. In contrast, if the channels are highly Na^+ selective, then the reversal potential will be close to the Na^+ Nernst potential (−58 mV).

B. subtilis membranes = assay: DiSC3(5) depolarization assay, MAcBCE/MAkBCE; format: cell-based, Bacillus subtilis; settings: 2 μM compound, 60 mM KCl, NaCl or NMDG-Cl; for change in DiSC3(5) fluorescence (membrane depolarization): 25° C, 10 minutes
Procedure: A 2 mL liquid culture of transformed B. subtilis cells was grown at 37° C. in LB medium supplemented with 5 μg/mL kanamycin until OD600=0.6 was reached. The cells were collected by centrifugation at 2000 rpm over 3 min. The bacteria were washed twice with an NMDG-MeSO3 solution (100 mM NMDG, 10 mM HEPES, pH adjusted to 7.4 with methane sulfonic acid). […] The working dye solution was a 200 μM solution of DiSC3(5) (3,3′-dipropylthiadicarbocyanine iodide; Tokyo Chemical Industry) in DMSO. A series of 2 M solutions of NMDG-Cl, NaCl and KCl were prepared containing 10 mM HEPES; the pH was adjusted to pH 7.4 with NMDG, NaOH or KOH, respectively, to avoid any pH changes after their addition. The experiment was initiated with 3 mL of NMDG-MeSO3 in a quartz cuvette, then 5 μL of the dye solution was added (timepoint t1, 50 sec) for a 0.3 μM final concentration by the end of experiment. This was followed by the addition of 100 μL of the B. subtilis suspension (timepoint t2, 100 sec). After 150 sec (timepoint t3, 250 sec), the fluorescence stabilized to a minimum intensity and 100 μL of the 2 M NMDG-Cl, NaCl or KCl solution was added to reach ˜60 mM final concentration of the salt. The final step was the addition 0.64 μL of a 10 mM stock solution of the desired MAcBCE or MAkBCE compound in TFE (timepoint t4, 400 sec), for a final concentration of 2 μM. Negative controls were performed by adding the same volume of pure TFE to the cuvette at timepoint t4. Fluorescence intensity was recorded each second using a Horiba Fluoromax 4 spectrometer (λexcitation=640 nm; λemission=670 nm). The solution inside the cuvette was vigorously mixed throughout the experiment by using a magnetic stirrer and the temperature was kept constant at 25° C. For purposes of normalization, the fluorescence intensity was divided by the fluorescence level just before timepoint t2.
To determine whether MAcBCE or MAkBCE compounds catalyse ion-selective flux, a set of highly bioactive members bearing ten-carbon chain lengths were tested for their ability to depolarize B. subtilis membranes using a test based on the fluorescent dye 3,3-dipropylthiadicarbocyanine (DiSC3(5)). This set of compounds were selected as four of the most toxic members of the MAcBCE and MAkBCE compound library (5-O-10, 5-A-10, 6-O-10, and 6-A-10; FIG. 3) belong to this group and all are soluble in TFE. The two non-toxic benzo(12-crown-4) scaffold members (4-O-10 and 4-A-10; FIG. 3) were used as controls.
FIGS. 4 and 5 show the time course of DiSC3(5) fluorescence due to the addition of 2 μM 6-A-10 (FIG. 4) and 6-O-10 (FIG. 5). The average of the final fluorescence values (mean±S.E.M.) of at least three experiments are shown in FIGS. 4 and 5 and are similarly plotted for 4-A-10 (FIG. 6), 5-A-10 (FIG. 7), 6-A-10 (FIG. 8), 4-O-10 (FIG. 9), 5-O-10 (FIG. 10), and 6-O-10 (FIG. 11). Experiments were performed in a NMDG-MeSO3 solution (100 mM NMDG, 10 mM HEPES, pH adjusted to 7.4 with methane sulfonic acid). The events are: t1, addition of dye; t2, addition of B. subtilis; t3, addition of a 2 M NMDG-Cl, 2 M NaCl or a 2 M KCl solution up to a final concentration of 60 mM; t4, addition of each MAcBCE or MAkBCE compound up to 2 μM. Experiments were repeated at least four times per condition and normalized relative to the fluorescence intensity just before the addition of cells.
The potentiometric dye DiSC3(5) was used to measure the ability of MAcBCE and MAkBCE compounds to catalyse ion-selective transport. DiSC3(5) undergoes membrane voltage-dependent partitioning between the intracellular and the extracellular medium. DiSC3(5) accumulates within a cell with a polarized membrane (negatively charged inside the cell) and is released when the cell membrane is depolarized (positively charged inside the cell). The membrane voltage in B. subtilis is roughly −120 mV, leading to DiSC3(5) accumulation in the bacteria (timepoint t2 in FIG. 4A-B). […]

| SMILES | permeability ratio pK/pNa [1] | estimated reversal potential [1] [mV] | change in DiSC3(5) fluorescence (membrane depolarization) (B. subtilis membranes) | kinetics of the depolarization, ion dependence (B. subtilis membranes) |
| --- | --- | --- | --- | --- |
| CCCCCCCCCCc1ccc2c(c1)OCCOCCOCCOCCOCCO2 [Compound 6-A-10, 18-decyl-2,3,5,6,8,9,11,12,14,15-decahydrobenzo[b][1,4,7,10,13,16]hexaoxacyclooctadecine] | 1.4 | 8.0±0.8 | clear increase in fluorescence | – |
| CCCCCCCCCC(=O)c1ccc2c(c1)OCCOCCOCCOCCOCCO2 [Compound 6-O-10, 1-(2,3,5,6,8,9,11,12,14,15-decahydrobenzo[b][1,4,7,10,13,16]hexaoxacyclooctadecin-18-yl)decan-1-one] | 1.3 | 6.5±0.6 | clear increase in fluorescence | fastest in presence of K^+ followed by Na^+ and then NMDG^+ |
